Experimental findings from publication PMC11626197 (Proceedings of the National Academy of Sciences of the …, 2024) are described below.

The target in data set [1] is chymotrypsin (Bos taurus, UniProt P00766). Description: Chymotrypsin inhibition assay. It counts as biochemical. Particulars: for protease inhibitory activity: chymotrypsin, result in words.
Data set [2] concerns the target T1, human neutrophil elastase (Homo sapiens, UniProt P08246).
T1 sequence (P08246 30-267): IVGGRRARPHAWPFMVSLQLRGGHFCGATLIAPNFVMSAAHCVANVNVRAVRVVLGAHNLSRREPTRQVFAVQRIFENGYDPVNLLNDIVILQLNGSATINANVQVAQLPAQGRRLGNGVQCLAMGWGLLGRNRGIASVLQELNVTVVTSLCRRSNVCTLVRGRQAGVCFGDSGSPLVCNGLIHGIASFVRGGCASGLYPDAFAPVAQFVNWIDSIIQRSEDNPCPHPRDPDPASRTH
Put plainly: Human neutrophil elastase inhibition assay. Particulars: for protease inhibitory activity: human neutrophil elastase, result in words. It counts as biochemical.

Data set [3] concerns the target human cathepsin B (Homo sapiens, UniProt P07858). Put plainly: Cathepsin B inhibition assay. It counts as biochemical. Conditions: for protease inhibitory activity: cathepsin B, result in words.
Data set [4] deals with influenza A virus (IAV). Put plainly: Antiviral assay against IAV. Type of data set: cell-based, IAV strain A/WSN/1933 (H1N1). Conditions: result in words.
The test system of data set [5] is herpes simplex virus (HSV). Conditions: for IC50: 42 h; for antiviral activity: HSV, result in words.
Data set [6] concerns lymphocytic choriomeningitis virus (LCMV). Particulars: for IC50: 1 h.
Data set [7] concerns MC57G fibroblast cells. Conditions: for cytotoxic effects: LIVE/DEAD staining, 2 days post-treatment.
Data set [8] deals with HeLa. Put plainly: Cell detachment in HeLa cells. Particulars: HeLa cell line. Type of data set: cell-based.
Data set [9] concerns Huh7. Description: Cell detachment in Huh7 cells. Conditions: Huh7 cell line. Type of data set: cell-based.

Numbered stars: 1 amine (or outer) side, 2 acyl side, 3 side chain; on linkers, the order of the positions; unused ones are H or OH. Bridge positions count the residues as written; N and C are the ends. Square brackets hold non-standard residues; d marks the D form. Ends that are not written are not given here. Peptide text beside a SMILES is read from it. ξ: configuration not given here. ξLeu(ψCOCO) = CC(C)CC(N[*:1])C(=O)C(=O)[*:2]; X1 = CSCCC(N[*:1])C(=O)C(=O)[*:2]

As usually defined, the IC50 is the concentration needed to halve the response being measured. “GTVTGSILTPIDYGCFNPFLCSVAMYGGVIDPIRFPNAWREL (disulfide 15-21) [Compound 5, G-RcsA*]”: the protease inhibitory activity result is “did not exhibit any protease inhibitory and antiviral activity” in data set [1]; “did not exhibit any protease inhibitory and antiviral activity” in [2]; “did not exhibit any protease inhibitory and antiviral activity” in [3]. The antiviral activity result was “did not exhibit any protease inhibitory and antiviral activity” in [4]; “did not exhibit any protease inhibitory and antiviral activity” in data set [5]; “did not exhibit any protease inhibitory and antiviral activity” in data set [6]. Moreover, the IC50 in [5] and in data set [6] was more than 200 µM throughout.

In the case of `CC[C@H](C)[C@H](N)C(=O)N[C@@H](CC(N)=O)C(=O)N[C@@H](C)C(=O)N[C@H](C(=O)NCC(=O)N[C@@H](CCC(N)=O)C(=O)N[C@@H](CCCNC(=N)N)C(=O)N[C@H](C(=O)N[C@@H](CC(=O)O)C(=O)N[C@@H](CO)C(=O)N[C@@H](CO)C(=O)N[C@H](C(=O)N[C@@H](Cc1ccccc1)C(=O)N[C@H](C(=O)N[C@@H](Cc1c[nH]cn1)C(=O)N[C@H]1CSSC[C@@H](C(=O)NCC(=O)N[C@H](C(=O)N[C@@H](C)C(=O)N[C@@H](CC(C)C)C(=O)N[C@@H](Cc2ccc(O)cc2)C(=O)NCC(=O)N[C@@H](CO)C(=O)N[C@H](C(=O)N[C@H](C(=O)N[C@@H](CC(=O)O)C(=O)N2CCC[C@H]2C(=O)N[C@@H](Cc2c[nH]cn2)C(=O)N[C@@H](CCCNC(=N)N)C(=O)N[C@@H](Cc2ccccc2)C(=O)N[C@@H](CC(=O)O)C(=O)N[C@@H](CCSC)C(=O)N[C@@H](CC(C)C)C(=O)N2CCC[C@H]2C(=O)O)[C@@H](C)CC)C(C)C)C(C)C)NC(=O)[C@H](C(C)C)NC(=O)[C@H](Cc2ccccc2)NC(=O)[C@H](Cc2ccccc2)NC(=O)[C@H](CC(=O)O)NC1=O)[C@@H](C)O)C(C)C)[C@@H](C)CC)[C@@H](C)O` [Compound 6, RasA*] (H-INATGQRIDSSVFTHCDFFVCGVALYGSVIDPHRFDMLP-OH; disulfide 16-21; N-terminus assumed), the protease inhibitory activity entry in [1] was “did not exhibit any protease inhibitory and antiviral activity”; in [2] it was “did not exhibit any protease inhibitory and antiviral activity”; in [3], “did not exhibit any protease inhibitory and antiviral activity”. For the same compound, the antiviral activity entry in [4] is “did not exhibit any protease inhibitory and antiviral activity”; in data set [5], “did not exhibit any protease inhibitory and antiviral activity”; in [6], “did not exhibit any protease inhibitory and antiviral activity”. The IC50 in [5] and in data set [6] was more than 200 µM in each case.

“GTVTGSILTPIDYGCFNPFLCSVA[X1]GGVIDPIRFPNAWREL (disulfide 15-21) [Compound 3, G-RcsA*-Tyn]”: the IC50 in data set [1] was 9.2 µM; in data set [2] it was 5.76 µM; in data set [3] it was 3.74 µM; in [5], 69.7 µM; in data set [6], 37 µM. For the same compound, the cytotoxic effects result in data set [7] is on record as “no significant cytotoxic effects”.

Regarding `CC[C@H](C)[C@H](N)C(=O)N[C@@H](CC(N)=O)C(=O)N[C@@H](C)C(=O)N[C@H](C(=O)NCC(=O)N[C@@H](CCC(N)=O)C(=O)N[C@@H](CCCNC(=N)N)C(=O)N[C@H](C(=O)N[C@@H](CC(=O)O)C(=O)N[C@@H](CO)C(=O)N[C@@H](CO)C(=O)N[C@H](C(=O)N[C@@H](Cc1ccccc1)C(=O)N[C@H](C(=O)N[C@@H](Cc1c[nH]cn1)C(=O)N[C@H]1CSSC[C@@H](C(=O)NCC(=O)N[C@H](C(=O)N[C@@H](C)C(=O)NC(CC(C)C)C(=O)C(=O)NCC(=O)N[C@@H](CO)C(=O)N[C@H](C(=O)N[C@H](C(=O)N[C@@H](CC(=O)O)C(=O)N2CCC[C@H]2C(=O)N[C@@H](Cc2c[nH]cn2)C(=O)N[C@@H](CCCNC(=N)N)C(=O)N[C@@H](Cc2ccccc2)C(=O)N[C@@H](CC(=O)O)C(=O)N[C@@H](CCSC)C(=O)N[C@@H](CC(C)C)C(=O)N2CCC[C@H]2C(=O)O)[C@@H](C)CC)C(C)C)C(C)C)NC(=O)[C@H](C(C)C)NC(=O)[C@H](Cc2ccccc2)NC(=O)[C@H](Cc2ccccc2)NC(=O)[C@H](CC(=O)O)NC1=O)[C@@H](C)O)C(C)C)[C@@H](C)CC)[C@@H](C)O` (stereo partly shown) [Compound 4, RasA*-Tyn] (H-INATGQRIDSSVFTHCDFFVCGVA[ξLeu(ψCOCO)]GSVIDPHRFDMLP-OH; disulfide 16-21; N-terminus assumed), the cell detachment result in data set [8] and in [9] was “not detected” each time. Besides, the IC50 in data set [5] worked out at 28.8 µM; in [6] it was 15.2 µM. Besides, in data set [7], the cytotoxic effects entry is “no significant cytotoxic effects”. In addition, in data set [7] (low levels / slight detachment), the “concentration at which cell detachment from the assay plates was observed” value is “above 50 µM”.
